These results are taken from PubChem BioAssay (NCI).

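Tested at 5 concentrations; 48 h exposure; 96-well plates; endpoints linearly interpolated, else capped at highest concentration. At the GI50, growth is halved. TGI: concentration producing complete growth inhibition.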

Common to all, as to assay: inhibition of tumour cell growth, NCI panel, 48 h
The test system of assay [1] is HT29 colon.
The subject of assay [2] is MDA-MB-435.
For assay [3], the system named is SF-268 CNS.
Assay [4] deals with NCI/ADR-RES ovarian.
The test system of assay [5] is CAKI-1 renal.
The subject of assay [6] is NCI-H522 lung.
Assay [7] has as its system NCI-H226 lung.
The subject of assay [8] is SK-MEL-2 melanoma.
In assay [9] the test system is SNB-19 CNS.
Assay [10] concerns SF-539 CNS.

In the case of `CC(C)CCN=C(N)c1ccc(N2CCN(c3ccc(C(N)=NCCC(C)C)cc3)CC2)cc1`, the GI50 was 6.51 µM in [1]; 9.76 µM in assay [2]; 33.1 µM in [3]; 61.4 µM in assay [4]; 31.4 µM in assay [5]; 8.73 µM in [6]. In addition, the GI50 in [7] was 17.9 µM; in assay [8], 9.37 µM; in assay [9] it was 6.52 µM. Further, the TGI in assay [1] is 30.2 µM; in [2] it was 24.2 µM; in [3], above 100 µM; in assay [4], above 100 µM; in assay [5] it was above 100 µM; in [6], 73.4 µM. The results for the TGI in assay [7], in [8] and in assay [9] were 46.8 µM, above 100 µM and 24.2 µM, respectively.

As for `O=[N+]([O-])c1c(Br)sc(Br)c1[N+](=O)[O-]`, the GI50 in [1] was 1.7 µM; in assay [2], 2 µM; in [3], 12.5 µM; in assay [4] it was 3.3 µM; in assay [5], 1.83 µM; in assay [10], 2.49 µM. The GI50 is 0.613 µM in [6], 3.18 µM in [7], 2.79 µM in [8] and 13.4 µM in assay [9]. Further, the TGI in assay [1] amounted to 3.47 µM; in assay [2], 5.28 µM; in [3], 25 µM; in [4] it was 23.8 µM; in assay [5], 3.63 µM; in assay [10], 6.35 µM. In addition, the TGI came to 1.95 µM in [6], 13.3 µM in assay [7], 10.3 µM in assay [8] and 27.9 µM in assay [9].

For `Nc1nc(-c2ccc(F)cc2)c(-c2ccc3ncccc3n2)s1`, the GI50 in [1] is 16.3 µM; in assay [2], above 25 µM; in assay [3] it was 16.5 µM; in assay [4] it was 21.7 µM; in assay [5], 9.27 µM; in assay [10], 14.4 µM. The GI50 in assay [6] was 8.31 µM; in assay [7], 11.8 µM; in assay [8], above 25 µM; in assay [9], above 25 µM. Also, the TGI in assay [1], in [2], in assay [3], in assay [4], in assay [5] and in assay [10] was above 25 µM each time. The TGI in [6], in assay [7], in assay [8] and in [9] was above 25 µM each time.

With `Fc1ccc(Nc2nc3nonc3nc2Nc2ccc(F)cc2)cc1`, the GI50 is 0.482 µM in [1]; 0.338 µM in [2]; 0.505 µM in assay [3]; 0.329 µM in assay [4]; 0.35 µM in assay [5]; 0.486 µM in assay [10]. The GI50 in assay [6] is 0.194 µM; in assay [7], 0.384 µM; in assay [8], 0.285 µM; in assay [9], 0.386 µM. The TGI was 10.7 µM in [1]; 3.61 µM in [2]; 14.3 µM in assay [3]; 2.76 µM in [4]; 10.8 µM in assay [5]; 11.6 µM in [10]. The TGI was 0.561 µM in [6], 13.9 µM in assay [7], 0.807 µM in assay [8] and 16.1 µM in assay [9].

Turning to `COc1ccc(Cn2cc3c(c2-c2ccc(OC)cc2)CCc2cnoc2-3)cc1`, the GI50 in assay [1] is 0.309 µM; in [2], 0.181 µM; in assay [3], 0.686 µM; in [4] it was 0.27 µM; in [5], 0.309 µM; in assay [10], 0.307 µM. Moreover, the GI50 in assay [6] was 0.199 µM; in assay [7], 1.36 µM; in assay [9] it was 0.679 µM. The TGI in assay [1] was 1.24 µM; in [2], 0.48 µM; in [3] it was above 100 µM; in [4], 4.08 µM; in [5] it was above 100 µM; in assay [10] it was 2.13 µM. Further, the TGI in assay [6] is 0.572 µM; in assay [7] it was above 100 µM; in [9], above 100 µM.

Regarding `CC[C@@H](C(=O)[C@@H](C)[C@@H](O)[C@H](C)[C@@H]1O[C@@H]([C@@H](CC)C(=O)N(CC)CC)CC[C@@H]1C)C1O[C@]2(C=CC(=O)[C@]3(CC[C@@](C)([C@H]4CC[C@](O)(CC)[C@H](C)O4)O3)O2)[C@H](C)C[C@@H]1C` (stereo partly specified), the GI50 in assay [1] is 2.73 µM; in [2] it was 2.91 µM; in assay [3], 3.25 µM; in assay [4], 2.82 µM; in assay [5], 2.18 µM; in assay [10] it was 2.26 µM. Further, the GI50 in assay [6] was 2.02 µM; in assay [7], 2.21 µM; in assay [8], 2.71 µM; in assay [9], 3.31 µM. In addition, the TGI in assay [1] came out at 15.6 µM; in assay [2] it was 9.95 µM; in assay [3], 80.9 µM; in assay [4] it was 26.9 µM; in assay [5] it was 13.5 µM; in assay [10], 5.47 µM. Besides, the TGI was 6.46 µM in [6], 6.71 µM in assay [7], 7.85 µM in assay [8] and above 100 µM in assay [9].

As for `CCC1CCc2nc3sc(C(=O)Nc4cccc(F)c4)c(N)c3cc2C1` (stereo unspecified), the GI50 in assay [2] was 0.11 µM; in [3], above 100 µM; in assay [4] it was above 100 µM; in [5], 0.867 µM; in [10], above 100 µM; in assay [6], above 100 µM. The GI50 in assay [7], in assay [8] and in assay [9] was above 100 µM throughout. The TGI in assay [2] is 0.616 µM; in [3], above 100 µM; in assay [4], above 100 µM; in assay [5], above 100 µM; in assay [10], above 100 µM; in assay [6] it was above 100 µM. Further, the TGI in assay [7], in assay [8] and in assay [9] was above 100 µM throughout.

With `Cc1cc(N(CCNc2ccnc3cc(Cl)ccc23)Cc2ccco2)nc(Cl)n1`, the GI50 in assay [1] was 1.58 µM; in [2], 1.72 µM; in [3] it was 2.16 µM; in [4], 1.86 µM; in assay [10] it was 1.82 µM; in [6], 1.75 µM. The GI50 in [8] was 1.9 µM; in assay [9], 1.91 µM. Further, the TGI was found to be 3.24 µM in assay [1]; 3.37 µM in [2]; 6.01 µM in [3]; 3.96 µM in assay [4]; 3.32 µM in assay [10]; 3.71 µM in assay [6]. Besides, the TGI in [8] was 3.83 µM; in assay [9], 3.74 µM.

On to `Cn1ccnc1C(=O)/C=C/c1ccccc1`, for which the GI50 was 3.31 µM in [1]; 3.21 µM in assay [2]; 3.11 µM in [4]; 3.88 µM in assay [5]; 2.18 µM in assay [10]; 3.38 µM in assay [6]. For the same molecule, the GI50 was 3.24 µM in assay [7] and 3.63 µM in assay [8]. In addition, the TGI in assay [1] is 11.2 µM; in [2], 10.2 µM; in assay [4], 8.95 µM; in [5] it was 19 µM; in [10], 4.78 µM; in assay [6], 14.9 µM. In addition, the TGI in assay [7] came out at 14.9 µM; in assay [8] it was 17.1 µM.

On to `N#CSCC1CC(O)(c2ccccc2)CC(c2ccc(F)cc2)O1` (stereo unspecified), for which the GI50 in assay [1] is 1.97 µM; in [2], 1.83 µM; in assay [3], 1.65 µM; in [4], 1.92 µM; in [5] it was 2.54 µM; in assay [10], 1.96 µM. The GI50 in [6] is 1.4 µM; in assay [8] it was 1.66 µM; in assay [9], 4.14 µM. Further, the TGI in assay [1] came to 4.19 µM; in assay [2], 4.08 µM; in assay [3] it was 3.3 µM; in assay [4], 4.77 µM; in assay [5] it was 8.5 µM; in assay [10], 3.66 µM. Moreover, the TGI is 3.1 µM in assay [6], 3.39 µM in assay [8] and 13.7 µM in [9].

For `COC(=O)CCCC(=O)O`, the TGI in [1], in assay [2], in assay [3], in assay [4], in assay [5] and in assay [6] was above 100 µM in each case. The TGI in [7], in assay [8] and in assay [9] was above 100 µM throughout.

On to `C=C1CCC2C(C)(C)CCC[C@]2(C)[C@H]1CO` (stereo partly specified), for which the GI50 is 52.7 µM in assay [1]; 43.2 µM in assay [2]; above 100 µM in assay [3]; 60.3 µM in assay [4]; above 100 µM in [5]; 67.6 µM in [6]. For the same molecule, the GI50 was 94.5 µM in assay [7], above 100 µM in assay [8] and above 100 µM in assay [9]. Moreover, the TGI in assay [1], in assay [2], in assay [3], in assay [4], in [5] and in assay [6] was above 100 µM in each case. In addition, the TGI in assay [7], in assay [8] and in assay [9] was above 100 µM in each case.
